Assay results reported in ChEMBL document CHEMBL1144995, “Carbonic anhydrase inhibitors. Inhibition of tumor-associated isozyme IX by halogenosulfanilamide and halogenophenylaminobenzolamide derivatives” (J Med Chem, 2003).

target: Carbonic anhydrase 9 (Homo sapiens, UniProt Q16790)
Description: Inhibition constant determined against catalytic domain of human cloned carbonic anhydrase IX

In order of falling Ki:
1. CC(=O)Nc1ccc(S(N)(=O)=O)cc1F  213 nM
2. CC(=O)Nc1ccc(S(N)(=O)=O)cc1I  209 nM
3. CC(=O)Nc1ccc(S(N)(=O)=O)cc1Br  203 nM
4. CC(=O)Nc1ccc(S(N)(=O)=O)cc1Cl  196 nM
5. CC(=O)Nc1ccc(S(=O)(=O)Nc2nnc(S(N)(=O)=O)s2)cc1F  79 nM
6. CC(=O)Nc1ccc(S(=O)(=O)Nc2nnc(S(N)(=O)=O)s2)cc1Br  78 nM
7. CC(=O)Nc1ccc(S(=O)(=O)Nc2nnc(S(N)(=O)=O)s2)cc1  75 nM
8. CC(=O)Nc1ccc(S(=O)(=O)Nc2nnc(S(N)(=O)=O)s2)cc1Cl  71 nM
9. Nc1c(F)cc(S(N)(=O)=O)cc1Br  69 nM
10. Nc1c(Br)cc(S(N)(=O)=O)cc1Br  68 nM
11. Nc1c(Cl)cc(S(N)(=O)=O)cc1I  63 nM
12. Nc1ccc(S(=O)(=O)Nc2nnc(S(N)(=O)=O)s2)cc1Br  47 nM
13. Nc1ccc(S(=O)(=O)Nc2nnc(S(N)(=O)=O)s2)cc1F  46 nM
14. Nc1ccc(S(=O)(=O)Nc2nnc(S(N)(=O)=O)s2)cc1Cl  46 nM
15. Nc1c(I)cc(S(=O)(=O)Nc2nnc(S(N)(=O)=O)s2)cc1I  41 nM
16. Nc1c(F)cc(S(=O)(=O)Nc2nnc(S(N)(=O)=O)s2)cc1Cl  40 nM
17. Nc1c(Br)cc(S(=O)(=O)Nc2nnc(S(N)(=O)=O)s2)cc1Br  39 nM
18. Nc1c(F)cc(S(N)(=O)=O)cc1I  34 nM
19. Nc1c(Cl)cc(S(N)(=O)=O)cc1Br  33 nM
20. Nc1c(Cl)cc(S(N)(=O)=O)cc1Cl  27 nM
21. Nc1c(F)cc(S(=O)(=O)Nc2nnc(S(N)(=O)=O)s2)cc1Br  27 nM
22. Nc1c(Cl)cc(S(=O)(=O)Nc2nnc(S(N)(=O)=O)s2)cc1Cl  24 nM
23. Nc1c(F)cc(S(=O)(=O)Nc2nnc(S(N)(=O)=O)s2)cc1I  21 nM
24. Nc1c(F)cc(S(N)(=O)=O)cc1Cl  12 nM

target: Carbonic anhydrase 2 (Homo sapiens, UniProt P00918)
Description: Inhibition constant (Ki) against human cloned carbonic anhydrase II (CAH)

In order of falling Ki:
1. Nc1c(Br)cc(S(N)(=O)=O)cc1I  107 nM
2. CC(=O)Nc1ccc(S(N)(=O)=O)cc1Cl  74 nM
3. Nc1c(Cl)cc(S(N)(=O)=O)cc1I  61 nM
4. Nc1c(Cl)cc(S(N)(=O)=O)cc1Br  54 nM
5. Nc1c(Cl)cc(S(N)(=O)=O)cc1Cl  50 nM
6. CC(=O)Nc1ccc(S(N)(=O)=O)cc1I  47 nM
7. Nc1c(F)cc(S(N)(=O)=O)cc1Br  33 nM
8. Nc1c(F)cc(S(N)(=O)=O)cc1Cl  32 nM
9. CC(=O)Nc1ccc(S(N)(=O)=O)cc1F  29 nM
10. Nc1c(F)cc(S(N)(=O)=O)cc1I  29 nM
11. CC(=O)Nc1ccc(S(N)(=O)=O)cc1Br  25 nM
12. CC(=O)Nc1ccc(S(=O)(=O)Nc2nnc(S(N)(=O)=O)s2)cc1  3.1 nM
13. CC(=O)Nc1ccc(S(=O)(=O)Nc2nnc(S(N)(=O)=O)s2)cc1I  1.7 nM
14. CC(=O)Nc1ccc(S(=O)(=O)Nc2nnc(S(N)(=O)=O)s2)cc1Br  1.5 nM
15. CC(=O)Nc1ccc(S(=O)(=O)Nc2nnc(S(N)(=O)=O)s2)cc1Cl  1.3 nM
16. CC(=O)Nc1ccc(S(=O)(=O)Nc2nnc(S(N)(=O)=O)s2)cc1F  1.2 nM
17. Nc1c(I)cc(S(=O)(=O)Nc2nnc(S(N)(=O)=O)s2)cc1I  0.9 nM
18. Nc1c(Cl)cc(S(=O)(=O)Nc2nnc(S(N)(=O)=O)s2)cc1I  0.8 nM
19. Nc1ccc(S(=O)(=O)Nc2nnc(S(N)(=O)=O)s2)cc1F  0.8 nM
20. Nc1ccc(S(=O)(=O)Nc2nnc(S(N)(=O)=O)s2)cc1Br  0.7 nM
21. Nc1c(Cl)cc(S(=O)(=O)Nc2nnc(S(N)(=O)=O)s2)cc1Br  0.6 nM
22. Nc1c(Br)cc(S(=O)(=O)Nc2nnc(S(N)(=O)=O)s2)cc1I  0.6 nM
23. Nc1ccc(S(=O)(=O)Nc2nnc(S(N)(=O)=O)s2)cc1I  0.6 nM
24. Nc1ccc(S(=O)(=O)Nc2nnc(S(N)(=O)=O)s2)cc1Cl  0.6 nM
25. Nc1c(Br)cc(S(=O)(=O)Nc2nnc(S(N)(=O)=O)s2)cc1Br  0.5 nM
26. Nc1c(Cl)cc(S(=O)(=O)Nc2nnc(S(N)(=O)=O)s2)cc1Cl  0.5 nM
27. Nc1c(F)cc(S(=O)(=O)Nc2nnc(S(N)(=O)=O)s2)cc1I  0.3 nM
28. Nc1c(F)cc(S(=O)(=O)Nc2nnc(S(N)(=O)=O)s2)cc1Br  0.2 nM

target: Carbonic anhydrase 1 (Homo sapiens, UniProt P00915)
Sequence (P00915 whole entry): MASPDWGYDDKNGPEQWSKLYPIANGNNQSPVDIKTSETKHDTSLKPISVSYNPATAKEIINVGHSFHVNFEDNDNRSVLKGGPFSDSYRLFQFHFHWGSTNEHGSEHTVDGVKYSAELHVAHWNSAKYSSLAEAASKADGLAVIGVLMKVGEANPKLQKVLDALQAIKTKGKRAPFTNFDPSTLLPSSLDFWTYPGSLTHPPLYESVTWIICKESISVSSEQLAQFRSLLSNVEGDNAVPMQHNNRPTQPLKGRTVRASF
Description: Inhibition constant determined against human cloned carbonic anhydrase I

In order of falling Ki:
1. Nc1c(I)cc(S(N)(=O)=O)cc1I  14000 nM
2. Nc1c(Br)cc(S(N)(=O)=O)cc1I  12500 nM
3. Nc1c(Cl)cc(S(N)(=O)=O)cc1I  7800 nM
4. Nc1c(Cl)cc(S(N)(=O)=O)cc1Br  7600 nM
5. Nc1c(Cl)cc(S(N)(=O)=O)cc1Cl  7000 nM
6. CC(=O)Nc1ccc(S(N)(=O)=O)cc1Cl  6250 nM
7. CC(=O)Nc1ccc(S(N)(=O)=O)cc1F  4200 nM
8. Nc1c(F)cc(S(N)(=O)=O)cc1Br  3900 nM
9. Nc1c(F)cc(S(N)(=O)=O)cc1Cl  3800 nM
10. Nc1c(F)cc(S(N)(=O)=O)cc1I  3700 nM
11. CC(=O)Nc1ccc(S(N)(=O)=O)cc1Br  3400 nM
12. CC(=O)Nc1ccc(S(N)(=O)=O)cc1I  3300 nM
13. CC(=O)Nc1ccc(S(=O)(=O)Nc2nnc(S(N)(=O)=O)s2)cc1  10.2 nM
14. CC(=O)Nc1ccc(S(=O)(=O)Nc2nnc(S(N)(=O)=O)s2)cc1F  5.7 nM
15. CC(=O)Nc1ccc(S(=O)(=O)Nc2nnc(S(N)(=O)=O)s2)cc1Cl  5.4 nM
16. CC(=O)Nc1ccc(S(=O)(=O)Nc2nnc(S(N)(=O)=O)s2)cc1I  5.2 nM
17. CC(=O)Nc1ccc(S(=O)(=O)Nc2nnc(S(N)(=O)=O)s2)cc1Br  5 nM
18. Nc1ccc(S(=O)(=O)Nc2nnc(S(N)(=O)=O)s2)cc1F  3.1 nM
19. Nc1ccc(S(=O)(=O)Nc2nnc(S(N)(=O)=O)s2)cc1Cl  2.5 nM
20. Nc1ccc(S(=O)(=O)Nc2nnc(S(N)(=O)=O)s2)cc1I  2.1 nM
21. Nc1ccc(S(=O)(=O)Nc2nnc(S(N)(=O)=O)s2)cc1Br  1.9 nM
22. Nc1c(Br)cc(S(=O)(=O)Nc2nnc(S(N)(=O)=O)s2)cc1I  1.9 nM
23. Nc1c(F)cc(S(=O)(=O)Nc2nnc(S(N)(=O)=O)s2)cc1I  1.7 nM
24. Nc1c(Cl)cc(S(=O)(=O)Nc2nnc(S(N)(=O)=O)s2)cc1I  1.6 nM
25. Nc1c(F)cc(S(=O)(=O)Nc2nnc(S(N)(=O)=O)s2)cc1Cl  1.4 nM
26. Nc1c(Cl)cc(S(=O)(=O)Nc2nnc(S(N)(=O)=O)s2)cc1Br  1.3 nM
27. Nc1c(Cl)cc(S(=O)(=O)Nc2nnc(S(N)(=O)=O)s2)cc1Cl  1.1 nM
28. Nc1c(Br)cc(S(=O)(=O)Nc2nnc(S(N)(=O)=O)s2)cc1Br  1 nM
29. Nc1c(F)cc(S(=O)(=O)Nc2nnc(S(N)(=O)=O)s2)cc1Br  1 nM

target: T1, Carbonic anhydrase 4 (Bos taurus, UniProt Q95323)
T1 sequence (Q95323 whole entry): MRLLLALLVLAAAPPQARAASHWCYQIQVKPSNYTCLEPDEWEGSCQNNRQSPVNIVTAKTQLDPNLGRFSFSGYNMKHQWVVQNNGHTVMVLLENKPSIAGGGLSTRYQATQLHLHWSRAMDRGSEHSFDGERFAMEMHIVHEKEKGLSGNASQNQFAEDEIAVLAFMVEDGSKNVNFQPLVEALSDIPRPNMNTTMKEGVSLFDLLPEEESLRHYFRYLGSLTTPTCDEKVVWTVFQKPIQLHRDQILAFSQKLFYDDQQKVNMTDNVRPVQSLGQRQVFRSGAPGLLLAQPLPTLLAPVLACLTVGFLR
Description: Inhibition constant against bovine Carbonic anhydrase IV, isolated from lung microsomes

In order of falling Ki:
1. Nc1c(I)cc(S(N)(=O)=O)cc1I  280 nM
2. Nc1c(Br)cc(S(N)(=O)=O)cc1I  250 nM
3. CC(=O)Nc1ccc(S(N)(=O)=O)cc1Cl  245 nM
4. Nc1c(Cl)cc(S(N)(=O)=O)cc1Br  210 nM
5. Nc1c(Cl)cc(S(N)(=O)=O)cc1I  200 nM
6. Nc1c(Br)cc(S(N)(=O)=O)cc1Br  175 nM
7. Nc1c(Cl)cc(S(N)(=O)=O)cc1Cl  165 nM
8. Nc1c(F)cc(S(N)(=O)=O)cc1I  125 nM
9. CC(=O)Nc1ccc(S(N)(=O)=O)cc1I  115 nM
10. Nc1c(F)cc(S(N)(=O)=O)cc1Br  113 nM
11. CC(=O)Nc1ccc(S(N)(=O)=O)cc1F  105 nM
12. Nc1c(F)cc(S(N)(=O)=O)cc1Cl  95 nM
13. CC(=O)Nc1ccc(S(N)(=O)=O)cc1Br  58 nM
14. CC(=O)Nc1ccc(S(=O)(=O)Nc2nnc(S(N)(=O)=O)s2)cc1  8.2 nM
15. CC(=O)Nc1ccc(S(=O)(=O)Nc2nnc(S(N)(=O)=O)s2)cc1Br  4.6 nM
16. CC(=O)Nc1ccc(S(=O)(=O)Nc2nnc(S(N)(=O)=O)s2)cc1I  4.5 nM
17. CC(=O)Nc1ccc(S(=O)(=O)Nc2nnc(S(N)(=O)=O)s2)cc1Cl  4.2 nM
18. CC(=O)Nc1ccc(S(=O)(=O)Nc2nnc(S(N)(=O)=O)s2)cc1F  4 nM
19. Nc1c(Cl)cc(S(=O)(=O)Nc2nnc(S(N)(=O)=O)s2)cc1I  2.7 nM
20. Nc1ccc(S(=O)(=O)Nc2nnc(S(N)(=O)=O)s2)cc1F  2.5 nM
21. Nc1ccc(S(=O)(=O)Nc2nnc(S(N)(=O)=O)s2)cc1I  2.5 nM
22. Nc1ccc(S(=O)(=O)Nc2nnc(S(N)(=O)=O)s2)cc1Br  2.4 nM
23. Nc1ccc(S(=O)(=O)Nc2nnc(S(N)(=O)=O)s2)cc1Cl  2.4 nM
24. Nc1c(Br)cc(S(=O)(=O)Nc2nnc(S(N)(=O)=O)s2)cc1I  2.3 nM
25. Nc1c(I)cc(S(=O)(=O)Nc2nnc(S(N)(=O)=O)s2)cc1I  2.3 nM
26. Nc1c(F)cc(S(=O)(=O)Nc2nnc(S(N)(=O)=O)s2)cc1I  2.1 nM
27. Nc1c(F)cc(S(=O)(=O)Nc2nnc(S(N)(=O)=O)s2)cc1Cl  2 nM
28. Nc1c(Cl)cc(S(=O)(=O)Nc2nnc(S(N)(=O)=O)s2)cc1Br  2 nM
29. Nc1c(F)cc(S(=O)(=O)Nc2nnc(S(N)(=O)=O)s2)cc1Br  1.9 nM
30. Nc1c(Cl)cc(S(=O)(=O)Nc2nnc(S(N)(=O)=O)s2)cc1Cl  1.9 nM
31. Nc1c(Br)cc(S(=O)(=O)Nc2nnc(S(N)(=O)=O)s2)cc1Br  1.7 nM
